We go through 95 compounds from PubChem BioAssay AID550 (SRMLSC, 2006).

Active and inactive are the calls of the source.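 How the source made its calls: active means clearly stronger inhibition of the target decarboxylase than of the coupling enzymes tested in parallel without it; inactive means the rest.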

The target of this assay is diphosphomevalonate decarboxylase (Streptococcus pneumoniae D39). As to the kind of experiment: S. pneumoniae DPM-DC inhibitor potency, dose response, biochemical, PK/LDH-coupled NADH fluorescence, hexokinase coupling counter-screen (AID 550). The following applies: purified DPM-DC.
In the case of `COc1cc(NC(=O)c2cccs2)c(C(=O)OCC(=O)NCc2ccco2)cc1OC`, the outcome was inactive.
On to `CC(O)COc1ccc(/C(=N/O)c2ccccc2)cc1` (stereo not given), for which the outcome was inactive.
On the same count and under the same terms, next, `Cc1cccc2cc(CN(Cc3ccco3)S(=O)(=O)c3ccc4c(c3)OCCO4)c(=O)[nH]c12`: “inactive”; `Cc1ccccc1CN1CCN(S(=O)(=O)c2ccc(F)cc2)CC1`: “inactive”.
On the same count and under the same terms, next, `Cc1cc(C(=O)CSc2nnnn2-c2ccc(Cl)cc2)c(C)n1CC1CCCO1` (stereo not given): “inactive”; `COC(=O)C1=C(C)OC(N)=C(C#N)C1c1cc(OC)c(OCC(N)=O)cc1Cl` (stereo not given): “inactive”.
Same read-out and setting: next, `Cc1cc(N2CCN(C(=O)c3ccco3)CC2)n2nc(-c3cccc(Cl)c3)cc2n1`: “inactive”.
With `CC(C)(O)P(C)(=O)c1ccccc1` (stereo not given), the outcome was inactive.
Same read-out and setting: next, `Cc1cc(=O)cc(C)[nH]1`: “inactive”; `O=c1c(-c2ccccc2)c(O)c2cccc3c2n1CCC3`: “inactive”.
For `CCOC(=O)CSc1cc(=O)n(C)c2cc(Cl)ccc12`, the outcome was inactive.
Still for that read-out and setting: next, `c1ccc(-c2nc3nonc3c3nc4ccccc4n23)cc1`: “inactive”.
Turning to `O=C(c1ccc(F)cc1)N1CCC(N2CCCCCC2)CC1`, the result was inactive.
Same read-out and setting: the entry for `COC(=O)c1cc(OC)c(OC)cc1NC(=O)c1oc2ccccc2c1C` is “inactive”; for `Cc1nc(-c2cnn(-c3ccccc3)c2)c2cc(C)oc2n1` it is “inactive”.
Still for that read-out and setting: next, `CC(NC(=O)c1cccc(N2CCCC2=O)c1)c1ccc2c(c1)OCCO2` (stereo not given): “inactive”; `COc1cc2c(cc1NC(=O)c1ccc3c(c1)OCO3)oc1ccccc12`: “inactive”; `O=C1NC(=O)C(CC(=O)N(c2ccccc2)C2(C(=O)NC3CCCC3)CCCCC2)N1` (stereo not given): “inactive”.
The same measure, in the same setting: the entry for `CC(C)C(OC(=O)CN1C(=O)COc2ccccc21)C(=O)NC1CCCC1` (stereo not given) is “inactive”.
Take `Cc1noc(C)c1CSc1nc2ccccc2s1`: the result was inactive.
Take `COc1ccc(N2C(C)=CS/C2=C(/C#N)c2nnc(N3CCOCC3)n2-c2ccccc2)cc1`: the outcome was inactive.
On the same count and under the same terms, the entry for `CCOc1ccc(N(CC(=O)NC2CCCC(C)C2C)S(=O)(=O)c2c(C)noc2C)cc1` (stereo not given) is “inactive”.
Same read-out and setting: next, `COc1ccccc1NC(=O)CSc1nc(O)cc(=O)n1-c1ccccc1OC`: “inactive”; `CCn1c(SCC(=O)Nc2cccc(C(C)=O)c2)nnc1C(C)C`: “inactive”.
As to `CCN(CC)c1nc2ccccc2n2cnnc12`, the outcome was inactive.
Same read-out and setting: the entry for `CCOC(=O)c1cc2c(=O)n(C)c3ccccc3c2s1` is “inactive”; for `CC1Cc2nc(SCC(=O)Nc3ccc4c(c3)OCO4)n(CCc3ccccc3)c(=O)c2S1` (stereo not given) it is “inactive”; for `O=C(CSc1nnc2ccccn12)Nc1ccccc1C(=O)NC1CC1` it is “inactive”.
For the compound `Cc1c(C(=O)OCC(C)(C)CN(C)C)oc2ccccc12`, the outcome was inactive.
As to `CCN(CCNC(=O)C1CCN(c2nnc(-n3cccc3)s2)CC1)c1ccccc1`, the outcome was inactive.
For the compound `Cc1cc(O)c(C=Nc2cccc(Cl)c2)c(=O)o1`, the result was inactive.
On the same count and under the same terms, next, `CCc1c(C)c(C#N)c2nc3ccccc3n2c1Nc1c(C)n(C)n(-c2ccccc2)c1=O`: “inactive”; `CCOC(=O)C(Cc1ccccc1)C(=O)Nc1nccs1` (stereo not given): “inactive”; `O=c1[nH]c(-c2ccncc2)nc2ccccc12`: “inactive”.
Same read-out and setting: the entry for `COC(=O)CC1SC(=O)NC1=Nc1ccccc1` (stereo not given) is “inactive”.
Still for that read-out and setting: next, `OCCNc1ncnc2c1c(-c1ccccc1)c(-c1ccccc1)n2Cc1ccco1`: “inactive”.
Turning to `COc1ccc(N2CCN(CCNS(=O)(=O)c3cccc4nsnc34)CC2)cc1`, the result was inactive.
The same measure, in the same setting: next, `CCC(=O)Nc1nnc(Sc2ccc(N(C)C)cc2)s1`: “inactive”.
Same read-out and setting: next, `N#C/C(=C\C1CC=CCC1)c1nc2ccccc2[nH]1` (stereo not given): “inactive”.
On the same count and under the same terms, the entry for `CCOc1ccc(N2CC(C(=O)OC)CC2=O)cc1` (stereo not given) is “inactive”.
Take `CCc1cc(/C(Cc2ccc3ccccc3n2)=N\O)c(O)cc1O`: the result was inactive.
Still for that read-out and setting: next, `CC(=O)c1cccc(NC(=O)Nc2cccnc2)c1`: “inactive”; `Cn1c(=NC(=O)c2ccco2)sc2cccc(F)c21`: “inactive”; `COCCNC(=O)c1cnn2c(C(F)(F)F)cc(-c3ccc4c(c3)OCO4)nc12`: “inactive”.
Still for that read-out and setting: next, `Cc1ccccc1Cc1c(C)nc2c(C(=O)N3CCN(Cc4ccc5c(c4)OCO5)CC3)cnn2c1C`: “inactive”; `CC(=NCc1ccco1)c1c(C)[nH]n(-c2nc3ccccc3s2)c1=O`: “inactive”.
The same measure, in the same setting: the entry for `CCCn1c(=O)c2ccccc2n2c(SCC(=O)/C(C#N)=C(\C)N)nnc12` is “inactive”.
As to `CCCC(=O)Nc1ccc(N2CCN(C(=O)CCC)CC2)cc1`, the result was inactive.
Same read-out and setting: the entry for `O=S(=O)(Nc1ccc(C(F)(F)F)cc1)c1cnc[nH]1` is “inactive”; for `COC(=O)Cn1c(=NC(=O)CSC(C)=O)sc2ccccc21` it is “inactive”.
For `CCOc1ccccc1OCC(=O)Nc1ccc(N2CCCCC2)cc1`, the outcome was inactive.
Same read-out and setting: the entry for `Cc1ccc(-n2c(SCC(=O)NCc3ccco3)nnc2-c2cccnc2)c(C)c1` is “inactive”; for `CCOC(=O)c1c(CC(C)C)csc1NC=O` it is “inactive”; for `CCc1nnc(NC(=O)CSc2nnc(COc3ccccc3)n2Cc2ccccc2)s1` it is “inactive”.
On the same count and under the same terms, next, `Cc1ccc2oc(=O)c3cnn(CC(=O)NC4CCN(Cc5ccccc5)CC4)c3c2c1`: “inactive”; `Cc1cc(C)c(S(=O)(=O)NCc2cn3c(C)csc3n2)cc1C`: “inactive”.
Still for that read-out and setting: the entry for `CSc1ncc(Cl)c(C(=O)Nc2nnc(SC)s2)n1` is “inactive”; for `CCCOC(=O)Cc1n[nH]c(=O)[nH]c1=O` it is “inactive”; for `CC(C)(C)CC(=O)Nc1nnc(-c2cccs2)s1` it is “inactive”.
On to `CCOc1ncccc1C(=O)Nc1ccc2c(C)cc(=O)oc2c1`, for which the outcome was inactive.
Still for that read-out and setting: the entry for `CN(C)S(=O)(=O)c1cccc(C(=O)C2=C3SC=C(c4ccccc4)N3CC2)c1` is “inactive”; for `Cc1cc(N2CCN(C3CCCC3)CC2)n2nc(C)c(-c3ccccc3)c2n1` it is “inactive”.
Same read-out and setting: the entry for `CCOC(=O)c1c(C)n(OCc2ccccc2)c2ccc3c(no[n+]3[O-])c12` is “inactive”.
Regarding `COC(=O)c1cc2occc2n1CC(=O)Nc1ccc(OC)c(OC)c1OC`, the result was inactive.
With `c1ccc(N2CCN(c3cnccn3)CC2)nc1`, the result was inactive.
Still for that read-out and setting: the entry for `Cc1ccc(OCCn2c(C)c(/C=N/n3cnnc3)c3ccccc32)cc1` is “inactive”; for `O=C(c1noc2c1CCCC2)N1CCCCC1` it is “inactive”; for `Cc1nc2nc(C)c(CCC(=O)N3CCOCC3)c(C)n2n1` it is “inactive”.
Still for that read-out and setting: the entry for `Cc1c(NC(=O)C2CCN(S(=O)(=O)c3ccccc3)CC2)c(=O)n(-c2ccccc2)n1C` is “inactive”.
On the same count and under the same terms, the entry for `CN(C)C(=O)Nc1cnc2ccccc2c1` is “inactive”.
On to `Cc1cccc(C)c1NC(=O)C(c1ccccc1)N1CCN(C(=O)c2ccco2)CC1` (stereo not given), for which the result was inactive.
Same read-out and setting: next, `COCCOC(=O)c1c(C)oc2ccc(NS(=O)(=O)c3ccc(F)cc3)cc12`: “inactive”; `COc1cccc(/C=N\n2c(C)nnc2C)c1OC`: “inactive”; `CCCN(CC(=O)c1cc(C)n(C)c1C)S(=O)(=O)c1cccc(C(F)(F)F)c1`: “inactive”.
Same read-out and setting: next, `Cn1c(SCC(=O)N2CCOCC2)nnc1-c1ccc(NC(=O)c2ccccc2F)cc1`: “inactive”; `COc1ccc(C(c2nnnn2CC2CCCO2)N2CCN(c3ccccc3)CC2)cc1` (stereo not given): “inactive”; `O=C(CSc1ncnc2c1cnn2-c1ccccc1)Nc1ccc2c(c1)OCO2`: “inactive”.
On the same count and under the same terms, next, `COc1ccc(C2CC(c3cccc(C)c3)n3nc(N)nc3N2)cc1` (stereo not given): “inactive”; `CCCn1c(C)nc2c(c1=O)c1nc3ccccc3nc1n2-c1ccc2c(c1)OCCO2`: “inactive”.
Consider `COc1cccc(C(=O)Nc2ccc(NC(=O)C(C)C)nc2)c1`, for which the result was inactive.
Same read-out and setting: next, `O=C(CCc1nc(-c2ccccc2F)no1)NCCN1CCc2ccccc2C1`: “inactive”.
On the same count and under the same terms, next, `CN1CC(=O)NC1=NC(=O)C12CC3CC(CC(C3)C1)C2`: “inactive”; `Nc1nc(N)c2sc3nc4c(cc3c2n1)CCC4`: “inactive”.
Same read-out and setting: the entry for `CCOC(=O)c1[nH]c2ccc(OC)cc2c1NC(=O)CN1CCN(c2ccccn2)CC1` is “inactive”.
As for `CC1=C(C(=O)OCC2CCCO2)C(c2ccncc2)C2=C(CCCC2=O)N1` (stereo not given), the IC50 entry was “inactive”.
For the compound `Cc1ccc(S(=O)(=O)N2CCOCC(=O)NCCOCCNC(=O)COCC2)cc1`, the outcome was inactive.
As to `CCOc1ccc(C(=O)O)cc1OC`, the outcome was inactive.
The same measure, in the same setting: next, `CCCN1C(=O)C(NC(C)=O)c2cc(OC)ccc21` (stereo not given): “inactive”; `COc1ccc(C(=O)NCc2cn3c(C)csc3n2)cc1OC`: “inactive”; `Cc1cc(=O)[nH]c2ccccc12`: “inactive”.
On the same count and under the same terms, next, `O=C(NCc1cccnc1)c1ccc2c(=O)n(CCCN3CCCC3=O)c(=S)[nH]c2c1`: “inactive”; `CC1(C)C(C=C(Cl)Cl)C1C(=O)N1CCN(c2ccccc2)CC1` (stereo not given): “inactive”.
The same measure, in the same setting: next, `O=C1C(Cl)=C(NCC2CCCO2)C(=O)N1Cc1ccccc1` (stereo not given): “inactive”; `Cc1c(C(=O)NCC2CCCO2)sc2nc(-c3ccccc3)cn12` (stereo not given): “inactive”; `CN(C)Cc1nc2ccccc2c(=O)n1Cc1nc(-c2cc3ccccc3o2)cs1`: “inactive”.
